# Data as given in US9623039B2, “Treatment and prevention of pathological conditions using iduna related techniques and compositions” (VALTED, LLC, priority 2010, dated 2017).
# Where a SMILES comes first, the peptide text is derived from it. The star is where a group is joined. Cbz = O=C(OCc1ccccc1)*; CH2F = FC*
# Assays:
# PARP-1 = molecular target: T1, PARP-1 (Homo sapiens, UniProt P09874); assay: Chemiluminescent PARP assay (biotinylated PAR onto histone); format: biochemical; details: incorporation of biotinylated PAR onto histone proteins
# T1 construct: purchased Trevigen
# Description: Because PARP-1 activation plays a prominent role in NMDA excitotoxicity we tested whether PARP-1 activity is directly affected by Iduna. PARP-1 activity was assessed by incorporation of biotinylated PAR onto histone proteins.
# Chemiluminescent PARP assay for poly(ADP-ribosyl)ation of Histone H1: Activity of PARP-1 was determined by Trevigen Universal chemiluminescent PARP assay kit (Trevigen, Gaithersburg, Md., USA) in the presence of Iduna or the PARP-1 inhibitor 3-aminobenzamide (3-AB). According to manufacturer's instructions, the incorporation of biotinylated NAD+ (Trevigen) into the poly(ADP-ribose) polymer primed at solid phase immobilized histone H1 (Trevigen) was detected by the chemiluminescent assay, either in the presence or absence of recombinant Iduna. Reactions were performed with 34 μM total biotinylated NAD+ for 60 min at 25° C. in triplicates. Chemiluminescence was measured using a fluorescence multi-well plate reader (SOSTmax, Sunnyvale, Calif.) with an excitation at 544 nm excitation/590 nm emission. In the parallel wells, PARP1 activity was measured after the 3-aminobenzamide treatment at the same concentration of biotinylated NAD+ (34 μM).
# MCF7 cells = assay: Laser micro-irradiation-induced DNA damage, recruitment of GFP-Iduna; format: cell-based, human; details: 405 nm laser microirradiation
# Description: Live-cell imaging and Laser micro-irradiation-induced DNA damage: For induction of localized DNA damage, MCF 7 cells stably expressing GFP-Iduna or GFP-Iduna-YRAA were plated onto 25 mm glass bottom culture dishes for 48 h. Cells were presensitized with 10 μM 5-bromo-2′-deoxyuridine (BrdU, Sigma) for 24 h. Cells were incubated with 2 μM Hoechst (Invitrogen) for 5 min and mounted on a preheated (37° C.) stage on a Zeiss LSM 710 confocal microscope equipped with 405 nm laser source. A laser microbeam was focused on a small rectangular strip of nucleus through 63× oil objective to induce localized DNA damage. The laser setting was set to 100% power output with a scanning speed of 1 and 6-10 laser iterations. The kinetics were calculated using Zeiss Zen 2010 software. Time point before irradiation represents—1 min and the time point just after irradiation represent 0 min. Each data series was normalized with respect to base line data intensity values.
# primary neurons = assay: H2O2-induced cell death in primary neurons; format: cell-based, mouse
# Description: FIGS. 44 and 45—Iduna protects against peroxide-induced cell death in primary neurons. Primary neuronal cultures were transduced with lentiviruses expressing GFP, GFP-Iduna or GFP-Iduna-YRAA. 4 days following lentiviral transduction, cultures were treated with H2O2 (100 μM or 500 μM) and cell death assessed 24 h later using PI and Hoechst staining.
# Cell Death Assessment: Following exposure of neuronal cultures to the various treatments neuronal survival was quantified and presented as percent of cell death. Percent cell death was determined as the ratio of live-to-dead cells compared with the percent cell death in control wells to account for cell death attributable to mechanical stimulation of the cultures. Quantification of neuronal survival was determined by staining treated cultures with 5 μM Hoechst 33342 and 2 μM propidium iodide (PI) (Invitrogen, Carlsbad, Calif.). Culture plates were placed on a mechanized stage of a Zeiss microscope and photomicrographs were collected by a blinded observer. The numbers of total and dead (PI positive) cells were counted by automated computer assisted software (Axiovision 4.6, Zeiss, Germany). The raw counts are presented in an Excel file for generation of percent cell death and statistical analysis. Glial nuclei fluoresce at a lower intensity than neuronal nuclei and were gated out by the software program. […]
# neuronal cultures = assay: Caspase-dependent cell death (camptothecin, staurosporine) in neuronal cultures; format: cell-based, mouse; details: for protection against cell death: 24 h
# Description: (§1) FIG. 42—Neuronal cultures expressing lenti-viral mediated GFP, GFP-Iduna or GFP-Iduna-YRAA were treated with camptothecin (CPT, 20 μM) and cell death assessed 24 h later using PI and Hoechst staining. […] Data represent the mean±SEM, n=4 of two independent experiments. *p<0.05 by ANOVA with Tukey-Kramer's posthoc test.
# as §1, with “43—Neuronal” for “42—Neuronal”, “staurosporine (STS, 500 nM)” for “camptothecin (CPT, 20 μM)”
# Cell Death Assessment: Following exposure of neuronal cultures to the various treatments neuronal survival was quantified and presented as percent of cell death. Percent cell death was determined as the ratio of live-to-dead cells compared with the percent cell death in control wells to account for cell death attributable to mechanical stimulation of the cultures. Quantification of neuronal survival was determined by staining treated cultures with 5 μM Hoechst 33342 and 2 μM propidium iodide (PI) (Invitrogen, Carlsbad, Calif.). Culture plates were placed on a mechanized stage of a Zeiss microscope and photomicrographs were collected by a blinded observer. The numbers of total and dead (PI positive) cells were counted by automated computer assisted software (Axiovision 4.6, Zeiss, Germany). The raw counts are presented in an Excel file for generation of percent cell death and statistical analysis. Glial nuclei fluoresce at a lower intensity than neuronal nuclei and were gated out by the software program. At least two separate experiments using four separate wells were performed for all data points.
# PAR polymer = PAR polymer overlay / dot blot (far western); format: binding; details: PAR polymer overlay assay
# Description: PAR binding is specified by a sequence of approximately 20 amino acids containing N-terminal basic amino acids and a C-terminal region containing alternating hydrophobic and basic amino acids (FIG. 24). Iduna contains a predicted PAR polymer binding sequence within amino acids 144-167 of the WWE domain (FIGS. 1 and 24). The PAR-binding domain was defined by comparing to the consensus sequence for PAR-binding and the known PAR binding domain of Histone 3 (FIG. 24). HEK293 cells were transfected with GFP, GFP-Iduna lacking the WWE domain (GFP-IdunaΔWWE), GFP-Iduna lacking the RF domain (GFP-IdunaARF), and full-length GFP-Iduna, followed by immunoprecipitation with a GFP antibody. […] Only GFP-Iduna-ARF and full-length GFP-Iduna can co-immunoprecipiate PAR binding proteins (FIG. 25). The critical amino acids in the PAR binding domain, 156Y and 157R, were mutated to 156A and 157A in full length Iduna (Iduna-YRAA). […] Similar results are obtained with a biotin-tagged PAR polymer followed by detection with an anti-biotin antibody (FIG. 26). […] Histone H3 is a known PAR binding protein and was used as a positive control for the PAR overlay assay. […] An assay based on electrophorectic mobility shift (EMSA) for PAR binding was developed to monitor PAR polymer binding to Iduna. […]
# T1 sequence (P09874 whole entry): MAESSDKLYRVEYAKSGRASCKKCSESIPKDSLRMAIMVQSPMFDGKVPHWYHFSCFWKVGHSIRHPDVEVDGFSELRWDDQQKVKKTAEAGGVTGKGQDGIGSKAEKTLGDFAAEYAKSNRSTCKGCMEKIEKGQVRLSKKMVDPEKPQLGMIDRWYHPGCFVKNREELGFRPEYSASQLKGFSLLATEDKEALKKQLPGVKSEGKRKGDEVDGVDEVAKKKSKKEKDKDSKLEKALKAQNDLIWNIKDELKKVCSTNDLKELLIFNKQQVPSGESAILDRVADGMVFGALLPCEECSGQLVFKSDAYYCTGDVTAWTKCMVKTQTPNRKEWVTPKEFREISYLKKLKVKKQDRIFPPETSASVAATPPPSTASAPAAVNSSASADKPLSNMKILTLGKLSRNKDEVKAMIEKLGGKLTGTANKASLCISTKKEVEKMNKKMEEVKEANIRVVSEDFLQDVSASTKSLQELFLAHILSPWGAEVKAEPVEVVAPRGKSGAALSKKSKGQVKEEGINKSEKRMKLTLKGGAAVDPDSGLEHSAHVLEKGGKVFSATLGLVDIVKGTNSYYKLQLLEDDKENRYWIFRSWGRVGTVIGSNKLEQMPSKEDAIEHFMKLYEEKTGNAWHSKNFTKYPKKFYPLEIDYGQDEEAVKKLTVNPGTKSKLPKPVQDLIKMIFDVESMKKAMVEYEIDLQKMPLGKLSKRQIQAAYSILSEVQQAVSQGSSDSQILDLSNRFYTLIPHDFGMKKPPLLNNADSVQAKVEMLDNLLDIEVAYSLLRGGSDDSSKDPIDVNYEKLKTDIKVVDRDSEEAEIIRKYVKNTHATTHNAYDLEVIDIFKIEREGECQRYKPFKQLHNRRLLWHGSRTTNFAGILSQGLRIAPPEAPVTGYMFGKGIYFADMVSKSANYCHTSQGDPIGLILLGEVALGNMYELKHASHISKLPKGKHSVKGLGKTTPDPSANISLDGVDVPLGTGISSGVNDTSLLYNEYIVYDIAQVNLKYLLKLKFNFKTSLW
compound,measurement,setting,value
"NC(=O)c1cccc(N)c1 [3-AB, 3-aminobenzamide, reference compound]",PARP-1 activity,PARP-1,inhibits PARP-1 activity
CN(C)Cc1ccc(-c2nc3cccc4c3n2CCNC4=O)cc1 [AG14361],recruitment of GFP-Iduna to laser-induced DNA breaks,MCF7 cells,blocks the translocation of Iduna
O=C1NCCc2c(OCCCCN3CCCCC3)cccc21 [DPQ],protection against H2O2 toxicity,primary neurons; 100 μM H2O2,only protected against 100 μM H2O2 toxicity
same,protection against H2O2 toxicity,primary neurons; 500 μM H2O2,Neither GFP-Iduna nor DPQ protect
COC(=O)C[C@H](NC(=O)[C@H](C)NC(=O)[C@@H](NC(=O)OCc1ccccc1)C(C)C)C(=O)CF [z-VAD fmk] (Cbz-Val-Ala-Asp(OMe)-CH2F),protection against cell death,neuronal cultures; camptothecin 20 μM,provides protection
same,apoptotic cell death,neuronal cultures; staurosporine 500 nM or camptothecin 20 μM,inhibited cell death
same,protection against cell death,neuronal cultures; staurosporine 500 nM,provides protection
"Iduna 144-167: synthesized peptide fragment of the predicted PAR polymer binding sequence, amino acids 144-167 of the WWE domain (LYVADLENMVQYRRNEHGRRRKIK; UniProt Q9NTX7 144-167, looked up, fragment)",PAR polymer binding,PAR polymer,binds to PAR polymer in a manner comparable to full-length Iduna
